Test results from US8138168B1 (Takeda Pharmaceutical Company Limited, priority 2007, dated 2012).

Target: T1, Recombinant human renin (Homo sapiens, UniProt P00797)
T1 construct: isolate the active form (residues 67-406); made in house; host or cells: FreeStyle 293-F cells (transient expression of pcDNA3.1(+)/hREN)
T1 sequence (P00797 67-406): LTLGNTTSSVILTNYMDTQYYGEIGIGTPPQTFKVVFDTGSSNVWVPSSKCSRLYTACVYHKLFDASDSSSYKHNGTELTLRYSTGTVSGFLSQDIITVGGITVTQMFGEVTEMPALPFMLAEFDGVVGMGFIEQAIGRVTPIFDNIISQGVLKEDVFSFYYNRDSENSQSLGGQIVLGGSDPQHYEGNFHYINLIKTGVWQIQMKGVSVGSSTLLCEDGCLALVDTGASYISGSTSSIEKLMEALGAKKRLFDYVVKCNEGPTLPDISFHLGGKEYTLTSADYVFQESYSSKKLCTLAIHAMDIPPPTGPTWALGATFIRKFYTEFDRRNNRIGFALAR
Assay: In vitro enzymatic activity assay of renin inhibitors (fluorogenic peptide substrate)
Format: biochemical
Conditions: isomers separated by preparative SFC; more or less active isomer as renin inhibitor
How it was run: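 Recombinant human renin (3 nM final) pre-incubated 10 min at 37 °C with compounds in pH 7.4 Hepes/EDTA/DTT/0.1 mg/mL BSA/Brij35 buffer (optionally plus 2% BSA), 5% DMSO final; fluorogenic QXL520/HiLyteFluo488 peptide substrate added.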

| Eutomer / distomer designation of the separated stereoisomers | SMILES |
| --- | --- |
| Distomer | Cc1nc2ccccc2n1[C@@H]1CCCN(C(=O)C[C@H](N)Cc2ccc3ccccc3c2)C1 [Compound 245, (R)-3-amino-1((R)-3-(2-methyl-1H-benzo[d]imidazol-1-yl)piperidin-1-yl)-4-(naphthalen-2-yl)butan-1-one] |

Same assay, conditions: read-out: IC50 of Exemplified Compounds Against Renin

| SMILES | IC50 [nM] |
| --- | --- |
| COCCCn1c([C@H]2CCCN(C(=O)C[C@@H](N)Cc3ccc(Cl)cc3)C2)nc2ccccc21 [Compound 70, (S)-3-amino-4-(4-chlorophenyl)-1-((S)-3-(1-(3-methoxypropyl)-1H-benzo[d]imidazol-2-yl)piperidin-1-yl)butan-1-one] | > 1000 |
| COCCCn1c([C@@H]2CCCN(C(=O)C[C@H](N)CNC(=O)Nc3ccccc3OC)C2)nc2ccccc21 [Compound 250, 1-((S)-2-amino-4-((R)-3-(1-(3-methoxypropyl)-1H-benzo[d]imidazol-2-yl)piperidin-1-yl)-4-oxobutyl)-3-(2-methoxyphenyl)urea] | < 100 |
| COCCCn1c([C@@H]2CCCN(C(=O)C[C@H](N)Cc3ccc(-c4ccc(C(=O)NCCOC(C)C)cc4)cc3)C2)nc2ccccc21 [Compound 179, 4′-((R)-2-amino-4-((R)-3-(1-(3-methoxypropyl)-1H-benzo[d]imidazol-2-yl)piperidin-1-yl)-4-oxobutyl)-N-(2-isopropoxyethyl)biphenyl-4-carboxamide] | < 100 |
| C[C@H](N)C(=O)N1CCCC(c2nc3ccccc3[nH]2)C1 (stereo partly drawn) [Compound 53, (2S)-1-(3-(1H-benzo[d]imidazol-2-yl)piperidin-1-yl)-2-aminopropan-1-one] | > 1000 |
| COCCCn1c([C@@H]2CCCN(C(=O)C[C@H](N)Cc3ccc(-c4ccc(C(=O)NC5CC5)cc4)cc3)C2)nc2ccccc21 [Compound 134, 4′-((R)-2-amino-4-((R)-3-(1-(3-methoxypropyl)-1H-benzo[d]imidazol-2-yl)piperidin-1-yl)-4-oxobutyl)-N-cyclopropylbiphenyl-4-carboxamide] | < 100 |
| Cc1nc2ccccc2n1[C@@H]1CCCN(C(=O)C[C@H](N)Cc2ccc3ccccc3c2)C1 [Compound 245, (R)-3-amino-1((R)-3-(2-methyl-1H-benzo[d]imidazol-1-yl)piperidin-1-yl)-4-(naphthalen-2-yl)butan-1-one] | > 1000 |
| COCCCn1c([C@@]2(O)CCCN(C(=O)C[C@H](N)Cc3ccc(Cl)cc3)C2)nc2ccccc21 [Compound 248, (R)-3-amino-4-(4-chlorophenyl)-1((R)-3-hydroxy-3-(1-(3-methoxypropyl)-1H-benzo[d]imidazol-2-yl)piperidin-1-yl)butan-1-one] | > 1000 |
| COCCCn1c([C@@H]2CCCN(C(=O)C[C@H](N)Cc3ccc(-c4cnc(C)n4C)cc3)C2)nc2ccccc21 [Compound 204, (R)-3-amino-4-(4-(1,2-dimethyl-1H-imidazol-5-yl)phenyl)-1-((R)-3-(1-(3-methoxypropyl)-1H-benzo[d]imidazol-2-yl)piperidin-1-yl)butan-1-one] | 100 to 1000 |
| COCCCn1c([C@@H]2CCCN(C(=O)C[C@H](N)Cc3ccc(-c4ccccc4C)cc3)C2)nc2ccccc21 [Compound 157, (R)-3-amino-1-((R)-3-(1-(3-methoxypropyl)-1H-benzo[d]imidazol-2-yl)piperidin-1-yl)-4-(2′-methylbiphenyl-4-yl)butan-1-one] | < 100 |
| COCCCn1c([C@@H]2CCCN(C(=O)C[C@H](N)Cc3ccc(N4CCN(C(C)=O)CC4)cc3)C2)nc2ccccc21 [Compound 232, (R)-4-(4-(4-acetylpiperazin-1-yl)phenyl)-3-amino-1-((R)-3-(1-(3-methoxypropyl)-1H-benzo[d]imidazol-2-yl)piperidin-1-yl)butan-1-one] | 100 to 1000 |
| COCCCn1c([C@@H]2CCCN(C(=O)C[C@H](N)Cc3ccc(-c4ccc(OC)nc4OC)cc3)C2)nc2ccccc21 [Compound 132, (R)-3-amino-4-(4-(2,6-dimethoxypyridin-3-yl)phenyl)-1-((R)-3-(1-(3-methoxypropyl)-1H-benzo[d]imidazol-2-yl)piperidin-1-yl)butan-1-one] | < 100 |
| Cc1ccccc1C[C@@H](N)CC(=O)N1CCCC(c2nc3ccccc3[nH]2)C1 (stereo partly drawn) [Compound 42, (3R)-1-(3-(1H-benzo[d]imidazol-2-yl)piperidin-1-yl)-3-amino-4-o-tolylbutan-1-one] | > 1000 |

Further lines, results first:

| IC50 [nM] | SMILES |
| --- | --- |
| > 1000 | CCCSc1ncccc1C(=O)N1C[C@@H](N)[C@H](C(=O)N2CCC[C@@H](c3nc4ccccc4n3CCCOC)C2)C1 [Compound 418] |
| 100 to 1000 | COCCCn1c([C@@H]2CCCN(C(=O)[C@@H]3CN(S(=O)(=O)c4cccc5ccccc45)C[C@H]3N)C2)nc2ccccc21 [Compound 354, ((3R,4S)-4-amino-1-(naphthalen-1-ylsulfonyl)pyrrolidin-3-yl)((R)-3-(1-(3-methoxypropyl)-1H-benzo[d]imidazol-2-yl)piperidin-1-yl)methanone] |
| > 1000 | COCCCn1c([C@@H]2CCCN(C(=O)[C@@H]3CN(S(=O)(=O)c4ccc([N+](=O)[O-])cc4OC)C[C@H]3N)C2)nc2ccccc21 [Compound 411, ((3R,4S)-4-amino-1-(2-methoxy-4-nitrophenylsulfonyl)pyrrolidin-3-yl)((R)-3-(1-(3-methoxypropyl)-1H-benzo[d]imidazol-2-yl)piperidin-1-yl)methanone] |
| 100 to 1000 | COCCCn1c([C@@H]2CCCN(C(=O)[C@@H]3CN(S(=O)(=O)c4cccc(Cl)c4C)C[C@H]3N)C2)nc2ccccc21 [Compound 353, ((3R,4S)-4-amino-1-(3-chloro-2-methylphenylsulfonyl)pyrrolidin-3-yl)((R)-3-(1-(3-methoxypropyl)-1H-benzo[d]imidazol-2-yl)piperidin-1-yl)methanone] |
| < 100 | COCCCn1c([C@@H]2CCCN(C(=O)C[C@H](N)CNC(=O)Nc3ccc(Cl)c(Cl)c3)C2)nc2ccccc21 [Compound 255, 1-((S)-2-amino-4-((R)-3-(1-(3-methoxypropyl)-1H-benzo[d]imidazol-2-yl)piperidin-1-yl)-4-oxobutyl)-3-(3,4-dichlorophenyl)urea] |
| 100 to 1000 | COCCCn1c([C@@H]2CCCN(C(=O)C[C@H](N)CNC(=O)Nc3ccc4c(c3)CCC4)C2)nc2ccccc21 [Compound 266, 1-((S)-2-amino-4-((R)-3-(1-(3-methoxypropyl)-1H-benzo[d]imidazol-2-yl)piperidin-1-yl)-4-oxobutyl)-3-(2,3-dihydro-1H-inden-5-yl)urea] |
| 100 to 1000 | COCCCn1c([C@@H]2CCCN(C(=O)C[C@H](N)CNC(=O)c3ccc(-c4cc(Cl)cc(Cl)c4)o3)C2)nc2ccccc21 [Compound 295, N-((S)-2-amino-4-((R)-3-(1-(3-methoxypropyl)-1H-benzo[d]imidazol-2-yl)piperidin-1-yl)-4-oxobutyl)-5-(3,5-dichlorophenyl)furan-2-carboxamide] |
| 100 to 1000 | COCCCn1c([C@@H]2CCCN(C(=O)C[C@H](N)CNC(=O)c3ccc(-c4ccc(Cl)cc4Cl)o3)C2)nc2ccccc21 [Compound 267, N-((S)-2-amino-4-((R)-3-(1-(3-methoxypropyl)-1H-benzo[d]imidazol-2-yl)piperidin-1-yl)-4-oxobutyl)-5-(2,4-dichlorophenyl)furan-2-carboxamide] |
| 100 to 1000 | COCCCn1c([C@@H]2CCCN(C(=O)[C@@H]3CN(S(=O)(=O)c4ccc(-c5ccccc5)cc4)C[C@H]3N)C2)nc2ccccc21 [Compound 348, ((3R,4S)-4-amino-1-(biphenyl-4-ylsulfonyl)pyrrolidin-3-yl)((R)-3-(1-(3-methoxypropyl)-1H-benzo[d]imidazol-2-yl)piperidin-1-yl)methanone] |
| < 100 | COCCCn1c([C@@H]2CCCN(C(=O)C[C@H](N)CNC(=O)c3ccc(-c4ccsc4)cc3)C2)nc2ccccc21 [Compound 261, N-((S)-2-amino-4-((R)-3-(1-(3-methoxypropyl)-1H-benzo[d]imidazol-2-yl)piperidin-1-yl)-4-oxobutyl)-4-(thiophen-3-yl)benzamide] |
| 100 to 1000 | COCCCn1c([C@@H]2CCCN(C(=O)[C@@H]3CN(C(=O)c4cccc5ccccc45)C[C@H]3N)C2)nc2ccccc21 [Compound 376, ((3R,4S)-1-(1-naphthoyl)-4-aminopyrrolidin-3-yl)((R)-3-(1-(3-methoxypropyl)-1H-benzo[d]imidazol-2-yl)piperidin-1-yl)methanone] |
| 100 to 1000 | COCCCn1c([C@@H]2CCCN(C(=O)C[C@H](N)CNC(=O)Nc3ccccc3C(C)C)C2)nc2ccccc21 [Compound 301, 1-((S)-2-amino-4-((R)-3-(1-(3-methoxypropyl)-1H-benzo[d]imidazol-2-yl)piperidin-1-yl)-4-oxobutyl)-3-(2-isopropylphenyl)urea] |
| < 100 | COCCCn1c([C@@H]2CCCN(C(=O)C[C@H](N)CNC(=O)Nc3cccc(OC)c3)C2)nc2ccccc21 [Compound 254, 1-((S)-2-amino-4-((R)-3-(1-(3-methoxypropyl)-1H-benzo[d]imidazol-2-yl)piperidin-1-yl)-4-oxobutyl)-3-(3-methoxyphenyl)urea] |
| > 1000 | COCCCn1c([C@@H]2CCCN(C(=O)[C@@H]3CN(S(=O)(=O)c4cc(C)ccc4C#N)C[C@H]3N)C2)nc2ccccc21 [Compound 403, 2-((3S,4R)-3-amino-4-((R)-3-(1-(3-methoxypropyl)-1H-benzo[d]imidazol-2-yl)piperidine-1-carbonyl)pyrrolidin-1-ylsulfonyl)-4-methylbenzonitrile] |
| 100 to 1000 | COCCCn1c([C@@H]2CCCN(C(=O)[C@@H]3CN(S(=O)(=O)c4c(F)cccc4F)C[C@H]3N)C2)nc2ccccc21 [Compound 426, ((3R,4S)-4-amino-1-(2,6-difluorophenylsulfonyl)pyrrolidin-3-yl)((R)-3-(1-(3-methoxypropyl)-1H-benzo[d]imidazol-2-yl)piperidin-1-yl)methanone] |
